From patent publication US20260109721A1, “IONIZABLE CATIONIC LIPIDS INCORPORATING SILICON: SYNTHESIS AND LNP FORMULATION” (priority 2023, published 2026)

Test system: HepG2 cell line
Assay: In vitro toxicity study on HepG2 cell line (resazurin, viability and IC50)
Type: cell-based, human
Details: resazurin; for Viability (%) at different lipid concentrations, mean: HepG2 cells, 48 h post-treatment, relative to ethanol vehicle controls; for IC50: Homo sapiens, lipid toxicity, HepG2, 48 h post-treatment, 6.25-800 μM, read-out: IC50 value, μM (on HepG2 cell)
Protocol: The synthesized lipids were tested in term of in vitro transfection efficacy and toxicity on HeLa cells. In order to perform the mentioned biological tests, appropriate LNPs had to be formulated from the synthesized lipids. The formulation technique was different in Method A and B. The particle size, polydispersity index (PDI) and zeta potential of resulting LNPs were determined by means of Dynamic Light Scattering technique (DLS). Prior to biological testing the encapsulation efficiency (EE) of the loaded LNPs was determined by using RiboGreen RNA assay. In case of Method A Luc mRNA while in case of Method B GFP mRNA was transfected into the cells. In parallel with the transfection experiments, toxicity of the investigated LNPs was determined, in case of Method A resazurin assay while in case of Method B MTT assay was used. Additionally, the toxicity of the lipids was investigated on HepG2 cells and IC50 values were determined.
HepG2 cell line (human hepatocellular carcinoma) were maintained in DMEM medium supplemented with 10% FBS. Cell toxicity measurements were carried out in 384-well microtiter plates with 1000 cells seeded in each well. Test measurements were carried out in triplicate, and control measurements in quadruplicate. After an overnight incubation, the cells were treated with an increasing concentration of the test compounds (6.25, 12.5, 25, 50, 100, 200, 400, 800 μM). […] 48 h post-treatment, following visual inspection under an inverted microscope, cell viability was measured by resazurin assay. Viability of treated cells was calculated relative to that of ethanol vehicle controls. Concentration response curves (CRCs) were obtained and corresponding IC50 values were calculated where applicable and are shown in Table 9.
Resazurin reagent (Sigma-Aldrich) was dissolved in PBS (pH 7.4) at 0.15 mg/ml concentration, 0.22 μm filtered and aliquoted at −20° C., 10 μl resazurin stock solution was added to wells. After 5 hours incubation at 37° C. under 5% CO2 fluorescence (530 nm excitation/580 nm emission) was recorded on a multimode microplate reader.

SMILES	Viability (%) at different lipid concentrations, mean (6.25 μM lipid)	Viability (%) at different lipid concentrations, mean (12.5 μM lipid)	Viability (%) at different lipid concentrations, mean (25 μM lipid)	Viability (%) at different lipid concentrations, mean (50 μM lipid)	Viability (%) at different lipid concentrations, mean (100 μM lipid)	Viability (%) at different lipid concentrations, mean (200 μM lipid)	Viability (%) at different lipid concentrations, mean (400 μM lipid)	Viability (%) at different lipid concentrations, mean (800 μM lipid)	IC50
CCCCC/C=C\C/C=C\CCCCCCCCOC(CCCCCCC/C=C\C/C=C\CCCCC)O[Si](C)(C)OCCCCCCN(CCCO)CCCO (stereo not shown) [Example 61, (24Z,27Z)-14-((8Z,11Z)-heptadeca-8,11-dien-1-yl)-4-(3-hydroxypropyl)-12,12-dimethyl-11,13,15-trioxa-4-aza-12-silatritriaconta-24,27-dien-1-ol]	100.6%	110.1%	116.5%	106.3%	54.4%	14.9%	−0.5%	−1.4%	102 µM
CCCCC/C=C\C/C=C\CCCCCCCCOC(CCCCCCC/C=C\C/C=C\CCCCC)O[Si](C)(C)OCCCCCCN1CCCC1CO (stereo not shown) [Example 63, (1-((20Z,23Z)-10-((8Z,11Z)-heptadeca-8,11-dien-1-yl)-8,8-dimethyl-7,9,11-trioxa-8-silanonacosa-20,23-dien-1-yl)pyrrolidin-2-yl)methanol]	99.3%	96.4%	96.6%	98.3%	94.8%	91.6%	85.3%	74.5%	> 800 µM
CCCCC/C=C\C/C=C\CCCCCCCCOC(CCCCCCC/C=C\C/C=C\CCCCC)O[Si](C)(C)OCCCCCCN1CCC(CO)CC1 (stereo not shown) [Example 65, (1-((20Z,23Z)-10-((8Z,11Z)-heptadeca-8,11-dien-1-yl)-8,8-dimethyl-7,9,11-trioxa-8-silanonacosa-20,23-dien-1-yl)piperidin-4-yl)methanol]	–	–	–	–	–	–	–	–	742 µM
CCCCCCCCO[Si](C)(C)O[Si](C)(C)OC(CCCCCCC)OCCCCCCN(C)CCN(C)CCN(C)CCCCCCOC(CCCCCCC)O[Si](C)(C)O[Si](C)(C)OCCCCCCCC (stereo not shown) [Example 83, N^1-(11-heptyl-3,13,13,15,15-pentamethyl-10,12,14,16-tetraoxa-3-aza-13,15-disilatetracosyl)-N^1,N^2-dimethyl-N^2-(6-((1-((1,1,3,3-tetramethyl-3-(octyloxy)disiloxaneyl)oxy)octyl)oxy)hexyl)ethane-1,2-diamine]	100.51%	98.95%	100.30%	101.93%	83.41%	41.91%	2.25%	−1.25%	176 µM
